Laboratory results taken from US10092622B2 (M[…] University Research and Technology Corporation, priority 2009, dated 2018).
“Also recorded” adds a separate entry of the source. Like-named read-outs stand apart in the source and are kept apart here. Numbered stars: 1 amine (or outer) side, 2 acyl side, 3 side chain; on linkers, the order of the positions; unused ones are H or OH. Bridge positions count the residues as written; N and C are the ends. Square brackets hold non-standard residues; d marks the D form. Peptide text beside a SMILES is read from it. * marks the point of attachment. hTyr(3S-OH,4S-OH,3'-OSO3H) = N[C@H](C(=O)O)[C@H](O)[C@@H](O)c1ccc(O)c(OS(=O)(=O)O)c1; Orn(4R-OH,5R-OH) = O=C([C@H](C[C@@H](O)[C@@H](O)N[*:3])N[*:1])[*:2]; Pro(3S-OH,4S-Me) = C[C@H]1CN[C@H](C(=O)O)[C@H]1O; X1 = CCCCCOc1ccc(-c2cc(-c3ccc(C(=O)*)cc3)no2)cc1; Gln(3R-OH) = NC(=O)C[C@@H](O)[C@H](N)C(=O)O; Hyp = O=C(O)[C@@H]1C[C@@H](O)CN1

Legend:
[1] = system: A. fumigatus; settings: cited from earlier work
[2] = system: Rhizoctonia solani; test: Light microscopy of hyphae grown at sub-inhibitory concentration; type: cell-based; settings: R. solani; subinhibitory concentration 0.5 μg/mL; versus control
Protocol: (§1) Microscopy. […] For each of the fungi, the hyphae or arthrospores with an observed MIC50 at 48 hours growing next to the MIC well were used for preparation of light microscopy and transmission electron microscopy (TEM) slides. For light microscopy, lactophenol cotton blue solution (Sigma) was used as a positive stain and mounting medium for the slide. For TEM, the G. candidum samples were fixed at 4° C. with 2.5% glutaraldehyde in 0.1 M phosphate buffer (pH 7.2). After being rinsed with the buffer, specimens were post-fixed with 2% osmium tetroxide in the phosphate buffer. The specimens washed with the phosphate butler were dehydrated in graded ethanol serials (50-100%), and then embedded in Spurr's resin. Thin sections generated with a Reichert-Jung Ultracut E Ultramicrotome (60-90 nm) were double stained with uranyl acetate and lead citrate as described previously. The grids were observed under a transmission electron microscope Jeol JEM-100CX11 (Joel Ltd., Tokyo, Japan). Images were taken at magnifications between 5,000 and 8,000.

[3] = system: Geotrichum candidum; test: Transmission electron microscopy of arthrospores; type: cell-based; settings: G. candidum; subinhibitory 4 μg/mL for 48 hours; TEM; versus untreated
Protocol: as §1

[4] = system: Pythium spinosum 472-04; test: Antifungal susceptibility testing, agar micro-dilution; type: cell-based; settings: P. spinosum; 48 hours
Source text: (§2) Microbial organisms. Fungal strains were obtained from collections at Mississippi State University's Veterinary Medical Research and Diagnostic Laboratory System and Entomology and Plant Pathology Department or were purchased from the American Type Culture Collection (Manassas, Va.). Fungal isolates used in this study were Alternaria alternata, Aspergillus fumigatus, Aspergillus niger; Fusarium oxysporum f. sp. lycopersici ATCC9848, Geotrichum candidum F-260, Macrophomina phaseolina 61, Microsporum gypseum, Penicillium sp., Rhizoctonia solani MSCOT-I, and Trichophyton mentagrophytes. In addition, two Pythium species were tested: Pythium spinosum 472-04 and Pythium ultimum 671-04.
(§3) Antifungal susceptibility testing. Minimum inhibitory concentrations were determined by agar micro-dilution testing. […] One (1) mL of Sabouraud dextrose agar Difco™ (BD Diagnostics, Franklin Lakes, N.J.) was added to each well. Once the agar solidified, the plates were stored inverted at 4° C. until used. Fungal cultures were grown on 100×15 mm Sabouraud dextrose agar plates (Thermo Fisher Scientific Remel Products, Lenexa, Kans.) at 22° C. for 7 days. A circular punch, containing a 1 cm in diameter plug of the fungi from the agar plate, was made from an area of the plate having a confluent growth of the fungi. The plug was place in 3 mL of PBS and ground with approximately 30 strokes of a Ten-brock homogenizer. Five (5) μL of the supernatant was placed in the center of each well and allowed to dry before incubating the microtiter plates at 22° C. Minimum inhibitory concentrations were measured at 48 hours for each species, except for Trichophyton mentagrophytes, which was measured at 72 hours. MICS were determined as the lowest concentration that inhibited visible fungal growth.

[5] = system: Macrophomina phaseolina 61; test: as above; type: cell-based; settings: 48 hours
Source text: as §2, §3

[6] = system: Geotrichum candidum F-260; test: as above; type: cell-based; settings: G. candidum; 48 hours
Source text: as §2, §3

[7] = system: Penicillium sp.; test: as above; type: cell-based; settings: 48 hours
Source text: as §2, §3

[8] = system: Fusarium oxysporum f. sp. lycopersici ATCC9848; test: as above; type: cell-based; settings: 48 hours
Source text: as §2, §3

[9] = system: Trichophyton mentagrophytes; test: as above; type: cell-based; settings: 72 hours
Source text: as §2, §3

[10] = system: Alternaria alternata; test: as above; type: cell-based; settings: 48 hours
Source text: as §2, §3

[11] = system: Rhizoctonia solani MSCOT-I; test: as above; type: cell-based; settings: R. solani
Source text: as §2, §3

[12] = system: Aspergillus fumigatus; test: as above; type: cell-based; settings: A. fumigatus; 48 hours
Source text: as §2, §3

[13] = system: Aspergillus niger; test: as above; type: cell-based; settings: A. niger; 48 hours
Source text: as §2, §3

[14] = system: Pythium ultimum 671-04; test: as above; type: cell-based; settings: P. ultimum; 48 hours
Source text: as §2, §3

[15] = system: Microsporum gypseum; test: as above; type: cell-based; settings: 48 hours
Source text: as §2, §3

[16] = system: Geotrichum candidum; test: Light microscopy of arthrospores; type: cell-based; settings: G. candidum; 4 μg/mL for 48 hours; versus untreated
Protocol: as §1

| Molecule | hyphal morphology ([1]; inhibitory concentrations) | hyphal morphology ([1]; sub-inhibitory concentrations) | hyphal morphology [2] | cell wall thickness [3] | MIC [4] | MIC [5] | MIC [6] | concentration with remarkable growth inhibition (MIC50) [6] | MIC [7] | MIC [8] | concentration with significant growth inhibition [8] | MIC [9] | MIC [10] | reduction in growth ([11]; 0.5 μg/mL occidiofungin) | concentration with significant growth inhibition (MIC50, >50% growth inhibition) ([11]; 48 hours) | MIC [12] | MIC [13] | MIC [14] | MIC [15] | arthrospore/cell morphology [16] |
| --- | --- | --- | --- | --- | --- | --- | --- | --- | --- | --- | --- | --- | --- | --- | --- | --- | --- | --- | --- | --- |
| CCCCCOc1ccc(-c2cc(-c3ccc(C(=O)N[C@H]4C[C@@H](O)[C@@H](O)NC(=O)[C@@H]5[C@@H](O)[C@@H](C)CN5C(=O)[C@H]([C@H](O)CC(N)=O)NC(=O)[C@H]([C@H](O)[C@@H](O)c5ccc(O)c(OS(=O)(=O)O)c5)NC(=O)[C@@H]5C[C@@H](O)CN5C(=O)[C@H]([C@@H](C)O)NC4=O)cc3)no2)cc1 [micafungin] (X1-[Orn(4R-OH,5R-OH)]T[Hyp][hTyr(3S-OH,4S-OH,3'-OSO3H)][Gln(3R-OH)][Pro(3S-OH,4S-Me)]; lactam 1-C) | hyphal burst | undulated membranes and deformed hyphae tips | – | – | – | – | – | – | – | – | – | – | – | – | – | – | – | – | – | – |
| occidiofungin | – | – | significant hyphal morphological changes | drastically reduced; also recorded: dramatic decrease in cell wall thickness | 1 µg/mL | 2 µg/mL | 8 µg/mL | 4 µg/mL | 32 µg/mL | > 32 µg/mL | 16 µg/mL | 4 µg/mL | 8 µg/mL | > 50% | 0.5 µg/mL | 8 µg/mL | 4 µg/mL | 2 µg/mL | 4 µg/mL | significant swelling of the cells; also recorded: amorphous shapes due to cellular swelling |
